# Patent US20100137134A1, “Pesticidal Mixtures” (priority 2005, published 2010)
# Tests used:
# [1] = tested on: vetch aphid (Megoura viciae); assay: Control of vetch aphid on broad bean leaf disks in 24-well microtiter plates (Test B.1); type: in vivo
# Description: For evaluating control of vetch aphid (Megoura viciae) through contact or systemic means the test unit consisted of 24-well-microtiter plates containing broad bean leaf disks.
# The compounds or mixtures were formulated using a solution containing 75% water and 25% DMSO (dimethylsulfoxid). Different concentrations of formulated compounds or mixtures were sprayed onto the leaf disks at 2.5 μl, using a custom built micro atomizer, at two replications.
# (§1) For experimental mixtures in these tests identical volumes of both mixing partners at the desired concentrations respectively, were mixed together.
# After application, the leaf disks were air-dried and 5-8 adult aphids placed on the leaf disks inside the microtiter plate wells. The aphids were then allowed to suck on the treated leaf disks and incubated at 23±1° C., 50±5% RH (room humidity) for 5 days. Aphid mortality and fecundity was then visually assessed.
# [2] = tested on: boll weevil (Anthonomus grandis); assay: Control of boll weevil, insect diet with eggs in 24-well microtiter plates (Test B.2); type: in vivo
# Description: For evaluating control of boll weevil (Anthonomus grandis) the test unit consisted of 24-well-microtiter plates containing an insect diet and 20-30 A. grandis eggs.
# The compounds or mixtures were formulated using a solution containing 75% water and 25% DMSO. Different concentrations of formulated compounds or mixtures were sprayed onto the […] at 20 μl, using a custom built micro atomizer, at two replications.
# as §1
# After application, microtiter plates were incubated at 23±1° C., 50±5% RH (room humidity) for 5 days. Egg and larval mortality was then visually assessed.
smiles,measurement,setting,value
Cc1cc(C#N)cc(C(N)=O)c1NC(=O)c1cc(Br)nn1-c1ncccc1Cl [IA-26/T4],Average (Control %),"[1]; test compound alone, 0.1 ppm (0 + 0.1), 5 days",0%
same,Average (Control %),"[2]; test compound alone, 0.3 ppm (0 + 0.3), 5 days",0%
Cc1cc(C#N)cc(C(=O)NC2CC2)c1NC(=O)c1cc(Br)nn1-c1ncccc1Cl [IA-326/T4],Average (Control %),"[2]; test compound alone, 0.01 ppm (0 + 0.01), 5 days",0%
same,Average (Control %),"[2]; test compound alone, 0.03 ppm (0 + 0.03), 5 days",0%
"O=[N+]([O-])NC1=NCCN1Cc1ccc(Cl)nc1 [Imidacloprid, reference compound]",Average (Control %),"[1]; Imidacloprid alone, 1 ppm (1 + 0), aphid mortality and fecundity after 5 days",25%
same,Average (Control %),"[2]; Imidacloprid alone, 10 ppm (10 + 0), egg and larval mortality after 5 days",0%
